Results as given in patent US20030032620A1, “Low molecular weight chondroitin sulphate compound having cosmetic activity” (priority 2001, published 2003).

Assays:
Assay type in all cases: cell-based
Conditions in all cases: human fibroblast culture, radioactive labelling
human dermal fibroblasts [1] = assay: Leucine incorporation (protein synthesis) in human fibroblast cultures
From the text: (§1) In another embodiment of the invention the CSBP obtained in the present example was characterised by its efficiency in stimulating the fundamental metabolism of human dermal fibroblasts, more particularly by incorporation of various markers such as thymidine (cell growth), leucine (protein synthesis) and glucosamine (synthesis of GAG).
(§2) Tests in vitro on human fibroblast cultures are a means of evaluating the capacity of CSBP to stimulate the fundamental metabolism of the extracellular matrix of the cutis. Under conventional conditions of cultivation in triplicate, the CSBP according to the invention and positive references (EGF, epidermis growth factor at 10 ng/ml, TGF-β human transformation factor b at 10 ng/ml and vitamin C at 20 mg/ml) were placed in contact with fibroblasts. The neosynthesis can be quantified by radioactive labelling of the specific metabolites (amino acids). Two concentrations of CSBP were tested: 2 and 0.4 mg/ml. The results obtained in the following table were subjected to the Dunnett test:
(§3) The culture conditions were as follows:
(§4) Culture medium MEM/M199: sodium bicarbonate 1.87 mg/ml, L-glutamine 2 mM, penicillin 50 IU/ml and foetal calf serum 10%.

human dermal fibroblasts [2] = assay: Thymidine incorporation (cell growth) in human fibroblast cultures
From the text: as §1, §2, §3, §4

human dermal fibroblasts [3] = assay: Glucosamine incorporation (synthesis of GAG) in human fibroblast cultures
From the text: as §1, §2, §3, §4

For `O=C1O[C@H]([C@@H](O)CO)C(O)=C1O` [VIT C, vitamin C, reference compound], the “% Leucine” value (human dermal fibroblasts [1]; positive reference vitamin C) was “VIT C: 45%”.

“EGF: epidermis growth factor, positive reference (NSDSECPLSHDGYCLHDGVCMYIEALDKYACNCVVGYIGERCQYRDLKWWELR; Epidermal growth factor; UniProt P01133 971-1023, looked up) [reference compound]” was tested, and the “% Thymidine” value (human dermal fibroblasts [2]; positive reference EGF at 10 ng/ml) was “EGF: 100%”.

In the case of “low molecular weight chondroitin sulphate [CSBP]”, the “% Thymidine” value (human dermal fibroblasts [2]; CSBP 0.4 mg/ml) is reported as 74 p < 0.01%, the “% Thymidine” value (human dermal fibroblasts [2]; CSBP 2.0 mg/ml) is reported as 183 p < 0.01% and the “% Leucine” value (human dermal fibroblasts [1]; CSBP 0.4 mg/ml) is reported as 44 p < 0.05%. For the same compound, the “% Leucine” value (human dermal fibroblasts [1]; CSBP 2.0 mg/ml) was 88 p < 0.01%, the “% Glucosamine” value (human dermal fibroblasts [3]; CSBP 0.4 mg/ml) was 57 p < 0.01% and the “% Glucosamine” value (human dermal fibroblasts [3]; CSBP 2.0 mg/ml) was 178 p < 0.01%.
